Experimental data published in patent publication US9937186B2, “Sulfonamides derived from tricyclyl-2-aminocycloalkanols as anticancer agents” (ICAHN SCHOOL OF MEDICINE AT MOUNT SINAI, priority 2014, dated 2018).

Experiments:
Type in all cases: cell-based
H1650 lung cancer cells = experiment: Cell viability assay (MTT), H1650 lung cancer cells; details: for GI50 / IC50: Homo sapiens, NCI-H1650; for IC50: H1650 lung cancer cells, 48 h drug treatment, MTT
Procedure: Cell Viability Assays (IC50 Determination)
Cell viability assays were performed according to Denizot, F. and R. Lang, Journal of Immunological Methods, 1986. 89(22): p. 271-277. H1650 lung cancer cells were plated at 150,000 cells per well in a 12 well plate. Twenty-four hours after plating, cells were treated as described with increasing concentrations of drug and control. Forty-eight hours after drug treatment, cells were treated with 100 μL of 3-(4,5-Dimethylthiazol-2-yl)-2,5-diphenyltetrazolium bromide (MTT) and incubated for 2 hours at 37 C. The MTT solution was subsequently replaced with 300 μL of n-propyl alcohol and re-aliquoted to a 96 well plate. Spectrophotometric analysis of each solution was performed using a 96 well plate reader at 600 nm in triplicate.

H1650 cells = experiment: Colony formation (clonogenic) assay, H1650 cells; details: Homo sapiens, NCI-H1650, 192 h; H1650, harvested 8 days after initial treatment
Procedure: (§1) Protocol for clonogenic assay follows Sangodkar et al., J Clin Invest 2012; 122:2637-51.
(§2) Cell culture and staining: For both A549luc and H1650 cells, 500 cells are seeded into each well of a 6-well plate and allowed to attach for 24 hours before drug treatment. The following day, cells are treated with either the appropriate dose of drug or an equivalent volume of DMSO (two replicates were treated for each condition). For each condition, depleted media was replaced with fresh media containing the equivalent drug dose four days after initial treatment. Cells are harvested either 7 (A549 luc) or 8 (H1650) days after initial treatment. Briefly, medium is aspirated from each well and the cells are washed twice with ice-cold PBS, then plates are allowed to dry at room temperature for 4 hours. Cells are fixed for one hour in a fixing solution consisting of 10% methanol and 10% glacial acetic acid in distilled water, then stained overnight in 1% (w/v) crystal violet dissolved in methanol. The next day, staining solution is aspirated from the wells and plates are washed gently with distilled water to remove excess stain before colony counting. Colonies are imaged on a ChemiDoc XRS+ (Bio-Rad) and images are exported as 8-bit TIFF files. Colonies are counted using the Colony Counter plugin in ImageJ, with colony size defined as between 4 and 400 square pixels, and minimum circularity set at 0.6. Duplicate wells are averaged to obtain a single value for each condition. Results (number of colonies) for A549 luc cells and results (number of colonies) for H1650 cells may be analyzed separately.

A549luc cells = experiment: Colony formation (clonogenic) assay, A549luc cells; details: Homo sapiens, 168 h; A549 luc, harvested 7 days after initial treatment
Procedure: as §1, §2

Row | GI50 (H1650 lung cancer cells; H1650 cells) | IC50 (H1650 lung cancer cells) | Compound | other results
1 | 5 µM | 5 µM | O=S(=O)(N[C@@H]1CCCC(N2c3ccccc3Oc3ccccc32)[C@H]1O)c1ccc(OC(F)(F)F)cc1 (mixture of isomers) [Example 1, N-(2-hydroxy-3-(10H-phenoxazin-10-yl)cyclohexyl)-4-(trifluoromethoxy)benzenesulfonamide] | GI50 (H1650 cells): 5 µM; GI50 (A549luc cells): 7.5 µM
2 | 20 µM | 20 µM | O=S(=O)(N[C@@H]1CCCC(N2c3ccccc3COc3ccccc32)[C@H]1O)c1ccc(OC(F)(F)F)cc1 (mixture of isomers) [Example 2, N-((1R,2R,3S)-rel-3-(dibenzo[b,e][1,4]oxazepin-5(11H)-yl)-2-hydroxycyclohexyl)-4-(trifluoromethoxy)benzenesulfonamide] | –
3 | 10 µM | 10 µM | O=S(=O)(N[C@@H]1CCCC(n2c3ccccc3c3ccccc32)[C@H]1O)c1ccc(OC(F)(F)F)cc1 (mixture of isomers) [Example 3, (1S,2S,3R)-rel-N-(3-(9H-carbazol-9-yl)-2-hydroxycyclohexyl)-4-(trifluoromethoxy)benzenesulfonamide] | GI50 (H1650 cells): 5 µM; GI50 (A549luc cells): 7.5 µM
4 | 10 µM | – | O=S(=O)(N[C@@H]1CCCC(N2c3ccccc3Oc3ccccc32)[C@H]1O)c1ccc(SC(F)(F)F)cc1 (mixture of isomers) [Example 16] | –
5 | 15 µM | – | O=S(=O)(N[C@@H]1CCCC(N2c3ccccc3Oc3ccccc32)[C@H]1O)c1ccc(OC(F)(F)F)cc1Cl (mixture of isomers) [Example 17] | –
6 | 15 µM | – | O=S(=O)(N[C@@H]1CCCC(N2c3ccccc3Oc3ccccc32)[C@H]1O)c1ccc(CC(F)(F)F)cc1 (mixture of isomers) [Example 18] | –
7 | 10 µM | – | O=S(=O)(N[C@@H]1CCCC(N2c3ccccc3Oc3ccccc32)[C@H]1O)c1ccc(C(F)(F)C(F)(F)F)cc1 (mixture of isomers) [Example 19] | –
8 | 25 µM | – | O=S(=O)(N[C@@H]1CCCC(N2c3ccccc3Oc3ccccc32)[C@H]1O)c1ccc(OC(F)F)cc1 (mixture of isomers) [Example 20] | –
9 | 15 µM | – | O=S(=O)(N[C@@H]1CCCC(N2c3ccccc3Oc3ccccc32)[C@H]1O)c1ccc(OC(F)(F)F)c(Cl)c1 (mixture of isomers) [Example 21] | –
10 | 5 µM | – | O=S(=O)(N[C@@H]1CCCC(n2c3ccc(Cl)cc3c3cc(Cl)ccc32)[C@H]1O)c1ccc(OC(F)(F)F)cc1 (mixture of isomers) [Example 22] | –
11 | 5 µM | – | O=S(=O)(N[C@@H]1CCCC(n2c3ccc(Cl)cc3c3cc(Cl)ccc32)[C@H]1O)c1ccc(Cl)cc1 (mixture of isomers) [Example 23] | –
12 | 5 µM | – | O=S(=O)(N[C@@H]1CCCC(n2c3ccc(Br)cc3c3cc(Br)ccc32)[C@H]1O)c1ccc(OC(F)(F)F)cc1 (mixture of isomers) [Example 24] | –
13 | 15 µM | – | O=S(=O)(N[C@@H]1CCCC(n2c3ccc(Br)cc3c3cc(Br)ccc32)[C@H]1O)c1ccc(Cl)cc1 (mixture of isomers) [Example 25] | –
14 | – | – | N#Cc1ccc2c(c1)c1cc(C#N)ccc1n2C1CCC[C@@H](NS(=O)(=O)c2ccc(OC(F)(F)F)cc2)[C@@H]1O (mixture of isomers) [Example 26] | H1650 GI50 (H1650 lung cancer cells; H1650 cells): Weak
15 | 5 µM | – | N#Cc1ccc2c(c1)c1cc(Br)ccc1n2C1CCC[C@@H](NS(=O)(=O)c2ccc(OC(F)(F)F)cc2)[C@@H]1O (mixture of isomers) [Example 27] | –
16 | 10 µM | – | N#Cc1ccc2c(c1)c1ccccc1n2C1CCC[C@@H](NS(=O)(=O)c2ccc(OC(F)(F)F)cc2)[C@@H]1O (mixture of isomers) [Example 28] | –
17 | 15 µM | – | COC(=O)c1ccc2c(c1)c1ccccc1n2C1CCC[C@@H](NS(=O)(=O)c2ccc(OC(F)(F)F)cc2)[C@@H]1O (mixture of isomers) [Example 29] | –
18 | 5 µM | – | O=S(=O)(N[C@@H]1CCCC(n2c3ccccc3c3cc(Br)ccc32)[C@H]1O)c1ccc(OC(F)(F)F)cc1 (mixture of isomers) [Example 30] | –
19 | 15 µM | 15 µM | O=S(=O)(N[C@@H]1CCCC(n2c3ccccc3c3ccccc32)[C@H]1O)c1ccc(Cl)cc1 (relative stereo) [Example 4, N-((1S,2S,3R)-rel-3-(9H-carbazol-9-yl)-2-hydroxycyclohexyl)-4-chlorobenzenesulfonamide] | –
20 | 20 µM | 20 µM | N#Cc1ccc(S(=O)(=O)N[C@@H]2CCCC(n3c4ccccc4c4ccccc43)[C@H]2O)cc1 (relative stereo) [Example 5, N-((1S,2S,3R)-rel-3-(9H-carbazol-9-yl)-2-hydroxycyclohexyl)-4-cyanobenzenesulfonamide] | –
21 | 20 µM | 20 µM | COc1ccc(S(=O)(=O)N[C@@H]2CCCC(n3c4ccccc4c4ccccc43)[C@H]2O)cc1 (relative stereo) [Example 6, N-((1S,2S,3R)-rel-3-(9H-carbazol-9-yl)-2-hydroxycyclohexyl)-4-methoxybenzenesulfonamide] | –
22 | 25 µM | 25 µM | O=S(=O)(N[C@@H]1CCCC(n2c3ccccc3c3ccccc32)[C@H]1O)c1ccccc1 (relative stereo) [Example 7, N-((1S,2S,3R)-rel-3-(9H-carbazol-9-yl)-2-hydroxycyclohexyl) benzenesulfonamide] | –
23 | 15 µM | 15 µM | CN1C(=O)c2ccccc2N(C2CCC[C@@H](NS(=O)(=O)c3ccc(OC(F)(F)F)cc3)[C@@H]2O)c2ccccc21 (relative stereo) [Example 8, 4-Trifluoromethoxy-N-((1S,2S,3R)-rel-2-hydroxy-3-(10-methyl-11-oxo-10,11-dihydro-5H-dibenzo[b,e][1,4]diazepin-5-yl)cyclohexyl)benzenesulfonamide] | –
24 | 25 µM | 25 µM | CN1C(=O)c2ccccc2N(C2CCC[C@@H](NS(=O)(=O)c3ccc(Cl)cc3)[C@@H]2O)c2ccccc21 (relative stereo) [Example 9, 4-Chloro-N-((1S,2S,3R)-rel-2-hydroxy-3-(10-methyl-11-oxo-10,11-dihydro-5H-dibenzo[b,e][1,4]diazepin-5-yl)cyclohexyl)benzenesulfonamide] | –
25 | 5 µM | – | O=S(=O)(N[C@H]1CCC[C@@H](N2c3ccccc3Oc3ccccc32)[C@@H]1O)c1ccc(OC(F)(F)F)cc1 (single isomer, unassigned) [Example 1b] | GI50 (H1650 cells): 5 µM; GI50 (A549luc cells): 7.5 µM
26 | 10 µM | – | O=S(=O)(N[C@H]1CCC[C@@H](n2c3ccccc3c3ccccc32)[C@@H]1O)c1ccc(OC(F)(F)F)cc1 (single isomer, unassigned) [Example 3b] | GI50 (H1650 cells): 7.5 µM; GI50 (A549luc cells): 10 µM
27 | 5 µM | – | O=S(=O)(N[C@H]1CCC[C@@H](n2c3ccccc3c3cc(F)ccc32)[C@@H]1O)c1ccc(OC(F)(F)F)cc1 (stereo in doubt) [Example 31b, N-((1S,2S,3R)-3-(3-fluoro-9H-carbazol-9-yl)-2-hydroxycyclohexyl)-4-(trifluoromethoxy)benzenesulfonamide] | –
28 | 5 µM | – | O=S(=O)(N[C@H]1CCC[C@@H](n2c3ccccc3c3cc(F)ccc32)[C@@H]1O)c1ccc(OC(F)(F)F)cc1 [Example 31a, N-((1S,2S,3R)-3-(3-fluoro-9H-carbazol-9-yl)-2-hydroxycyclohexyl)-4-(trifluoromethoxy)benzenesulfonamide] | –
29 | 5 µM | – | O=S(=O)(N[C@H]1CCC[C@@H](n2c3ccc(F)cc3c3cc(F)ccc32)[C@@H]1O)c1ccc(OC(F)(F)F)cc1 [Example 32a, N-((1S,2S,3R)-3-(3,6-difluoro-9H-carbazol-9-yl)-2-hydroxycyclohexyl)-4-(trifluoromethoxy)benzenesulfonamide] | –
30 | 5 µM | – | O=S(=O)(N[C@@H]1CCC[C@H](n2c3ccc(F)cc3c3cc(F)ccc32)[C@H]1O)c1ccc(OC(F)(F)F)cc1 [Example 32b] | –
